In PubChem BioAssay (NCI):
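Exposure lasted 48 hours, with cells grown in 96-well plates and compounds tested at five concentrations. Abbreviation: GI50, concentration required for 50% inhibition of growth. TGI marks complete inhibition of growth.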

Key:
Test in all cases: growth of human tumour cells (NCI), 48 h
LOX IMVI melanoma = system: LOX IMVI melanoma
MDA-MB-435 = system: MDA-MB-435
M14 melanoma = system: M14 melanoma
RXF 393 renal = system: RXF 393 renal
SNB-19 CNS = system: SNB-19 CNS
HCT-116 colon = system: HCT-116 colon
ACHN renal = system: ACHN renal
CCRF-CEM leukemia = system: CCRF-CEM leukemia
HCC-2998 colon = system: HCC-2998 colon
CAKI-1 renal = system: CAKI-1 renal

Compound	GI50 (LOX IMVI melanoma) [µM]	TGI (LOX IMVI melanoma) [µM]	GI50 (MDA-MB-435) [µM]	TGI (MDA-MB-435) [µM]	GI50 (M14 melanoma) [µM]	TGI (M14 melanoma) [µM]	GI50 (RXF 393 renal) [µM]	TGI (RXF 393 renal) [µM]	GI50 (SNB-19 CNS) [µM]	TGI (SNB-19 CNS) [µM]	GI50 (HCT-116 colon) [µM]	TGI (HCT-116 colon) [µM]	GI50 (ACHN renal) [µM]	TGI (ACHN renal) [µM]	GI50 (CCRF-CEM leukemia) [µM]	TGI (CCRF-CEM leukemia) [µM]	GI50 (HCC-2998 colon) [µM]	TGI (HCC-2998 colon) [µM]	GI50 (CAKI-1 renal) [µM]	TGI (CAKI-1 renal) [µM]
COc1cc(-n2cc(-c3ccc(Cl)c(Cl)c3)nc2SCc2ccccc2)cc(OC)c1OC	> 100	> 100	> 100	> 100	> 100	> 100	92.5	> 100	> 100	> 100	80.7	> 100	> 100	> 100	> 100	> 100	> 100	> 100	> 100	> 100
COc1cc(C(=O)NC2c3ccccc3-c3ccccc32)c(N)cc1OCc1ccccc1	63.6	> 100	> 100	> 100	47	> 100	13.5	34.7	22.6	58	20.3	> 82.7	23	> 92.3	> 100	> 100	> 100	> 100	16.1	63.8
O=C(Nc1nc2ccccc2s1)OCC(F)(F)F	> 100	> 100	> 100	> 100	> 100	> 100	> 100	> 100	> 100	> 100	> 100	> 100	> 100	> 100	> 100	> 100	> 100	> 100	> 100	> 100
O=C1/C(=C/c2ccc(F)cc2)CCOc2ccc([N+](=O)[O-])cc21	35.9	> 100	1.94	7.26	2.22	5.61	1.71	3.7	4.26	16.2	1.5	3.01	28	65.4	0.761	3.47	2.04	4.75	2.08	4.73
